One assay relates to AMO-1 xenograft. Put plainly: AMO-1 xenograft model of multiple myeloma. It is filed as in vivo, female SCID/bg mice. Conditions: 25 mg/kg/day, IP/QDx1. Here is the method: Tumors were size matched at approximately 200 mm^3. […] Tumor volume was estimated two to three times weekly. […] Seven or eight mice were housed per cage. Food and water were available ad libitum.
Tumor growth inhibition is calculated by 100*(1−Tv/Cv) where Tv and Cv are the mean tumor volumes of the treated and control groups, respectively.

The next assay deals with GST-MCL-1 (Homo sapiens, UniProt Q07820). The experiment in a line: TR-FRET MCL-1 binding assay (competition with probe F-Bak). The procedure, abridged:
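Test compounds, 11 three-fold dilutions from 25 μM final, incubated 2 hours at room temperature with GST-MCL-1, F-Bak probe and Tb-anti-GST antibody. TR-FRET read at 340/35 nm excitation with 520/525 and 495/510 nm emission. Run without human serum and with 10% HS.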

Assay [1] has as its system AMO-1 human multiple myeloma tumor cell line. The experiment in a line: AMO-1 cell viability assay (CellTiter-Glo, 24 hours). Type of assay: cell-based.
The subject of assay [2] is NCI-H929 human multiple myeloma tumor cell line. The experiment in a line: NCI-H929 cell viability assay (CellTiter-Glo, 24 hours). Type of assay: cell-based.
Where [3] appears, read: MCL-1 Binding Ki (nM, 10% HS), in the presence of 10% HS (human serum).
The mark [4] stands for this setting: without HS, read-out: MCL-1 Binding Ki.
[5] abbreviates: Homo sapiens, AMO1, 24 h, read-out: AMO-1 Viability IC50 (μM, 10% FBS), 10% FBS, 24 hours of compound treatment.
Setting [6] is: Homo sapiens, NCI-H929, 24 h, read-out: H929 Viability IC50 (μM, 10% FBS), 10% FBS, 24 hours of compound treatment.

Read-outs that look alike come from different tables or passages of the source. Marks after values point to notes of the source that are not given here.

Sequence of GST-MCL-1 (Q07820 whole entry): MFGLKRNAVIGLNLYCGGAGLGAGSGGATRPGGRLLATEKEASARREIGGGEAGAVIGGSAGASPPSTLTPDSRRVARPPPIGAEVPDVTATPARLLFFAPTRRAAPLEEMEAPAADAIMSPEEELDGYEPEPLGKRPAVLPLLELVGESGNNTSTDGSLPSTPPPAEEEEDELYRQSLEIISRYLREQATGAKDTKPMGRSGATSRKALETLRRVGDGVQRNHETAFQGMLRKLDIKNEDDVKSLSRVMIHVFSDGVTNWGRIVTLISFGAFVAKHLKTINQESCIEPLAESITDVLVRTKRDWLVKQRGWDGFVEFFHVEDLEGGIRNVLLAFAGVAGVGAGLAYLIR

Take `COCCOCCOCCN1CCN(C[C@@H]2COc3ccc(OCc4ccnc(-c5ccccc5OC)n4)c(c3)C[C@H](C(=O)O)Oc3ncnc4sc(-c5ccc(F)cc5)c(c34)-c3ccc(c(Cl)c3C)O2)CC1` (atropisomer, axis not shown) [Example 5, (7R,16R,21S)-19-chloro-1-(4-fluorophenyl)-16-[(4-{2-[2-(2-methoxyethoxy)ethoxy]ethyl}piperazin-1-yl)methyl]-10-{[2-(2-methoxyphenyl)pyrimidin-4-yl]methoxy}-20-methyl-7,8,15,16-tetrahydro-18,21-etheno-13,9-(metheno)-6,14,17-trioxa-2-thia-3,5-diazacyclononadeca[1,2,3-cd]indene-7-carboxylic Acid]: the “TGD (%)” value in the assay with AMO-1 xenograft is given as 17* %. Also, the “TGImax (%)” value in the assay with AMO-1 xenograft was 55* %. Moreover, the Ki at GST-MCL-1 (setting [3]) is 0.057 nM; on GST-MCL-1 (setting [4]) it was 0.009 nM. The values for the IC50 in assay [1] (setting [5]) and in assay [2] (setting [6]) were 4 nM and 0.008 µM, respectively.
Regarding `COCCOCCOCCOCCN1CCN(C[C@@H]2COc3ccc(OCc4ccnc(-c5ccccc5OC)n4)c(c3)C[C@H](C(=O)O)Oc3ncnc4sc(-c5ccc(F)cc5)c(c34)-c3ccc(c(Cl)c3C)O2)CC1` (atropisomer, axis not shown) [Example 4, (7R,16R,21S)-19-chloro-1-(4-fluorophenyl)-10-{[2-(2-methoxyphenyl)pyrimidin-4-yl]methoxy}-20-methyl-16-{[4-(2,5,8,11-tetraoxatridecan-13-yl)piperazin-1-yl]methyl}-7,8,15,16-tetrahydro-18,21-etheno-13,9-(metheno)-6,14,17-trioxa-2-thia-3,5-diazacyclononadeca[1,2,3-cd]indene-7-carboxylic Acid], the “TGD (%)” value in the assay on AMO-1 xenograft was 33* %. In addition, in the assay on AMO-1 xenograft, the “TGImax (%)” value was 54* %. For the same molecule, the inhibition constant Ki on GST-MCL-1 (setting [3]) stood at 0.052 nM; on GST-MCL-1 (setting [4]), 0.007 nM. Moreover, the IC50 was 7 nM in assay [1] (setting [5]) and 0.011 µM in assay [2] (setting [6]).
With `COCCOCCOCCOCCOCCOCC1(C)CC=C(c2nccc(COc3ccc4cc3C[C@H](C(=O)O)Oc3ncnc5sc(-c6ccc(F)cc6)c(c35)-c3c(C)c(Cl)c(c(Cl)c3C)O[C@H](CN3CCN(C)CC3)CO4)n2)CC1` (single isomer, unassigned) [Example 84, (7R,16R)-19,23-dichloro-1-(4-fluorophenyl)-10-({2-[(4R*)-4-(2,5,8,11,14,17-hexaoxaoctadecan-1-yl)-4-methylcyclohex-1-en-1-yl]pyrimidin-4-yl}methoxy)-20,22-dimethyl-16-[(4-methylpiperazin-1-yl)methyl]-7,8,15,16-tetrahydro-18,21-etheno-13,9-(metheno)-6,14,17-trioxa-2-thia-3,5-diazacyclononadeca[1,2,3-cd]indene-7-carboxylic Acid], the “TGD (%)” value in the assay with AMO-1 xenograft is recorded as 33* %. The “TGImax (%)” value in the assay with AMO-1 xenograft is given as 71* %. In addition, the Ki at GST-MCL-1 (setting [3]) turned out to be 0.232 nM; at GST-MCL-1 (setting [4]), 0.033 nM. Also, the IC50 in assay [1] (setting [5]) was found to be 0.175 nM; in assay [2] (setting [6]), 0.000528 µM.
For `COCCOCCOCC1(F)CC=C(c2nccc(COc3ccc4cc3C[C@H](C(=O)O)Oc3ncnc5sc(-c6ccc(F)cc6)c(c35)-c3c(C)c(Cl)c(c(Cl)c3C)O[C@H](CN3CCN(C)CC3)CO4)n2)CC1` (single isomer, unassigned) [Example 87, (7R,16R)-19,23-dichloro-10-({2-[(4R*)-4-fluoro-4-{[2-(2-methoxyethoxy)ethoxy]methyl}cyclohex-1-en-1-yl]pyrimidin-4-yl}methoxy)-1-(4-fluorophenyl)-20,22-dimethyl-16-[(4-methylpiperazin-1-yl)methyl]-7,8,15,16-tetrahydro-18,21-etheno-13,9-(metheno)-6,14,17-trioxa-2-thia-3,5-diazacyclononadeca[1,2,3-cd]indene-7-carboxylic Acid], the “TGD (%)” value in the assay on AMO-1 xenograft was 158* %. Besides, the “TGImax (%)” value in the assay on AMO-1 xenograft is 99* %. Further, the Ki worked out at 0.068 nM at GST-MCL-1 (setting [3]) and 0.004 nM on GST-MCL-1 (setting [4]). Besides, the IC50 in assay [1] (read-out: AMO-1 Viability IC50 (μM, 10% FBS), 10% FBS, 24 hours of compound treatment) amounted to 0.0959 nM; in assay [2] (read-out: H929 Viability IC50 (μM, 10% FBS), 10% FBS, 24 hours of compound treatment) it was 0.000253 µM.
In the case of `COCCOCCOCCOCCOC[C@@H]1CCCC[C@H]1c1nccc(COc2ccc3cc2C[C@H](C(=O)O)Oc2ncnc4sc(-c5ccc(F)cc5)c(c24)-c2c(C)c(Cl)c(c(Cl)c2C)O[C@H](CN2CCN(C)CC2)CO3)n1` (relative stereo) [Example 120, (7R,16R)-19,23-dichloro-1-(4-fluorophenyl)-20,22-dimethyl-16-[(4-methylpiperazin-1-yl)methyl]-10-({2-[(1R*,2R*)-2-(2,5,8,11,14-pentaoxapentadecan-1-yl)cyclohexyl]pyrimidin-4-yl}methoxy)-7,8,15,16-tetrahydro-18,21-etheno-13,9-(metheno)-6,14,17-trioxa-2-thia-3,5-diazacyclononadeca[1,2,3-cd]indene-7-carboxylic Acid], the Ki on GST-MCL-1 (setting [4]) stood at 26.3 nM. The IC50 in assay [1] (setting [5]) was determined as 0.231 nM; in assay [2] (setting [6]) it was 0.000386 µM.
Consider `Cc1c(Cl)c2c(Cl)c(C)c1-c1c(-c3ccc(F)cc3)sc3ncnc(c13)O[C@@H](C(=O)O)Cc1cc(ccc1OCc1ccnc(-c3ccccc3S(C)(=N)=O)n1)OCC(CN1CCN(C)CC1)O2` (stereo partly drawn) [Example 26, (7R,16R)-19,23-dichloro-1-(4-fluorophenyl)-10-({2-[2-(S-methanesulfonimidoyl)phenyl]pyrimidin-4-yl}methoxy)-20,22-dimethyl-16-[(4-methylpiperazin-1-yl)methyl]-7,8,15,16-tetrahydro-18,21-etheno-13,9-(metheno)-6,14,17-trioxa-2-thia-3,5-diazacyclononadeca[1,2,3-cd]indene-7-carboxylic Acid], for which the inhibition constant (Ki) came to 0.11 nM on GST-MCL-1 (setting [3]) and 0.021 nM on GST-MCL-1 (setting [4]). Also, the IC50 in assay [1] (setting [5]) was 1.12 nM; in assay [2] (setting [6]), 0.00289 µM.
In the case of `COC1CC2(C1)CN(c1nccc(COc3ccc4cc3C[C@H](C(=O)O)Oc3ncnc5sc(-c6ccc(F)cc6)c(c35)-c3c(C)c(Cl)c(c(Cl)c3C)O[C@H](CN3CCN(C)CC3)CO4)n1)C2` [Example 79, (7R,16R)-19,23-dichloro-1-(4-fluorophenyl)-10-{[2-(6-methoxy-2-azaspiro[3,3]heptan-2-yl)pyrimidin-4-yl]methoxy}-20,22-dimethyl-16-[(4-methylpiperazin-1-yl)methyl]-7,8,15,16-tetrahydro-18,21-etheno-9,13-(metheno)-6,14,17-trioxa-2-thia-3,5-diazacyclononadeca[1,2,3-cd]indene-7-carboxylic Acid], the inhibition constant Ki on GST-MCL-1 (setting [3]) turned out to be 1 nM; at GST-MCL-1 (setting [4]), 0.088 nM. For the same molecule, the IC50 came to 0.418 nM in assay [1] (setting [5]) and 0.00163 µM in assay [2] (setting [6]).
The corresponding values for `Cc1c(Cl)c2c(Cl)c(C)c1-c1c(-c3ccc(F)cc3)sc3ncnc(c13)O[C@@H](C(=O)O)Cc1cc(ccc1OCc1ccnc(-c3ccc(OC[C@H]4CN(C)CCO4)cc3)n1)OC[C@@H](CN1CCN(C)CC1)O2` [Example 158, (7R,16R)-19,23-dichloro-1-(4-fluorophenyl)-20,22-dimethyl-10-{[2-(4-{[(2R)-4-methylmorpholin-2-yl]methoxy}phenyl)pyrimidin-4-yl]methoxy}-16-[(4-methylpiperazin-1-yl)methyl]-7,8,15,16-tetrahydro-18,21-etheno-9,13-(metheno)-6,14,17-trioxa-2-thia-3,5-diazacyclononadeca[1,2,3-cd]indene-7-carboxylic Acid] are 0.41 nM, 0.003 nM, 0.258 nM and 0.00131 µM.
